For experiment [1], the system named is RNA-Pol II Ser2-P. The experiment in a line: Western blot, RNA Pol II and phospho-Pol II Ser2. Particulars: HCT116, 1–10 µM, 16 h. The class given is cell-based, human. The method, then:
YB5 cells were harvested in 50 mM Tris-HCl, 1% NP-40, 1 mM EDTA, 1 mM EGTA, 0.25% sodium deoxycholate, 150 mM NaCl, 50 mM sodium fluoride, and 1X Complete protease cocktail (Roche, Basel, Switzerland) with 1 mM PMSF. The total protein concentration was measured in all samples by standard BCA protocol (Pierce-23225, Thermo Scientific, Waltham, MA, USA) to ensure that an equal amount of protein was added to each sample. Protein extracts were run on 12% SDS–PAGE precast gels (Bio-Rad, Hercules, CA, USA, 345-0118). Proteins were transferred to polyvinylidene difluoride (PVDF) membranes in 10 mmol/L CAPS (pH-11) containing 10% methanol and detected by using specific primary antibodies, horseradish peroxidase–conjugated secondary antibodies (GE Healthcare, Chicago, IL, USA), and an enhanced chemiluminescence reagent (Pierce). PVDF membranes were incubated with specific primary antibodies (actin—A5441, Sigma, St. Louis, MO, USA; HA-tagged—H9608, Sigma; FLAG-tagged—F3165, Sigma). FLAG- and HA-tagged CDK9 plasmids were a generous gift from Dr Bassel E. Sawaya (Temple University). For CDK9 target modulation, HCT116 colon cancer cells were treated with toyocamycin or known CDK9 inhibitor BAY1251152 (Selleckchem, Houston, TX, USA). Whole cell extracts were obtained by lysing cells with 25 mM Tris (pH 7.3) and 1% sodium dodecyl sulfate (SDS). After sonication, total protein concentrations were determined using Bradford protein assay. The following primary antibodies were used to investigate the effect of CDK9 inhibition: Pol II against the N-term region (sc-55492, Santa Cruz, Dallas, TX, USA), Pol II against the C-term region (39097, Active motif, Carlsbad, CA, USA), Pol II phospho CTD ser2 (14-9802-82, Invitrogen, Waltham, MA, USA), Rb (ab181616, Abcam, Cambridge, UK), Rb phospho T826 (ab133446, Abcam, Cambridge, UK), CDK9 (ab39098, Abcam, Cambridge, UK), and actin (ab1801, Abcam, Cambridge, UK). Images were acquired with an Image Quant LAS4000 device from GE Healthcare Life Sciences. Band intensity quantifications were calculated using ImageJ software, edition 1.53 [27].

The test system of experiment [2] is YB5 cells. As to the kind of experiment: GFP reactivation in YB5 cell-based system (flow cytometry). Particulars: for GFP expression in YB5 cells, adenosine analogues: Figure S2; for GFP+ cells: alone, screen control. On the set-up: species or system human. The procedure:
YB5 cells are derived from SW48 cells (human colon cancer cell line), and contain a single insertion of a DNA hypermethylated cytomegalovirus (CMV) promoter driving the green fluorescent protein (GFP) gene, as previously described. YB5 cells are cultured in L-15 medium supplemented with 10% fetal bovine serum and grown in log-phase in 1% CO2 atmosphere. YB5 cells were authenticated by DNA fingerprinting prior to drug screening and validation experiments. GFP expression in YB5 cells is silenced in >99.9% of the cells due to the CMV promoter DNA hypermethylation and repressive chromatin marks around the transcriptional start site. The human HCT116 colon cancer-derived GFP-reporter system, comprising a GFP gene under the control of an endogenously hypermethylated SFRP1 gene promoter, was kindly provided by Dr. Stephen Baylin (Johns Hopkins University). These cells are cultured in McCoy’s 5A medium supplemented with 10% fetal bovine serum and grown in log-phase in 5% CO2 atmosphere at 37 °C. The 451-Lu-BR melanoma cells were a kind gift from Dr. Raza Zaidi (Fels Institute for Cancer Research and Molecular Biology, Temple University School of Medicine, Philadelphia). These cells are derived from parental 451-LU cells that have acquired resistance to BRAF inhibitors. The 451-Lu-BR cells were cultured at 37 °C in Dulbecco’s Modified Eagle Medium (DMEM) supplemented with 10% fetal bovine serum, L-alanyl-L-glutamine (2 mM), and gentamycin (50 µg/mL) in 5% CO2 at 37 °C. The natural drug library (natural product set II) containing 120 compounds was obtained from the National Cancer Institute Developmental Therapeutics Program. Natural compounds were dissolved in DMSO (10 mM) in 96-well plates that were kept at −80°C until use. Toyocamycin, analogues of toyocamycin (sangivamycin, tubercidin, 3-deaza-adenosine, DZNep), CDK inhibitors, and epigenetic drugs (decitabine, SAHA, trichostatin A, depsipeptide) were purchased from Sigma-Aldrich (St. Louis, MO, USA,) for validation studies, dissolved in DMSO, and kept at −80 °C until use.
YB5 cells were seeded at 30,000 cell/mL in 96-well plates (6000 cells/well) and treated 3 days after seeding. Cells were exposed to 120 natural compounds in 5 different experimental conditions: (1) 72 h exposure at 10 µM followed by 24 h recovery period prior to analysis; (2) 24 h treatment at 50 µM prior to analysis; (3) 72 h exposure at 10 µM of the compound library followed by 24 h treatment with HDAC inhibitor trichostatin A (200 nM) prior to analysis; (4) 72 h exposure at 10 µM in simultaneous combination with decitabine (50 nM) followed by 24 h recovery period prior to analysis; and (5) 72 h treatment with decitabine (50 nM) followed by 24 h exposure with the natural compound library (50 µM) prior to analysis. The scheme of different dose schedules is shown Figure S1A. During screening, drugs and cell culture media were replaced every day. To ensure the quality and the reproducibility of the screen, each 96-well plate was designed to include 80 natural compounds, 4 untreated wells, 4 wells treated with decitabine (50 nM, 72 h), 4 wells treated with trichostatin A (200 nM, 24 h), and their combination with decitabine (50 nM, 72 h) followed by trichostatin A treatment (200 nM, 24 h) prior to flow cytometry analysis. The percentage of GFP-expressing cells in control wells (untreated or treated with known epigenetic drugs) was measured and was reproducible between different plates.
After treatment, YB5 cells were trypsinized for 15 min and resuspended in L-15 media containing propidium iodide (PI) to stain dead cells. GFP expression and PI staining were quantified by a BD LSR II flow cytometer (BD Biosciences, San Jose, CA, USA). A maximum of 10,000 cells was analyzed per well. Validations were performed using a Millipore Guava flow cytometer (EMD, Millipore, Burlington, MA, USA). […]

Experiment [3] deals with CDK9. Particulars: cited from earlier work.
The test system of experiment [4] is YB5 cells. As to the kind of experiment: anchorage-dependent clonogenic assay. The class given is cell-based, human. The note with it: 10–50 nM, 72 h treatment, 2 weeks drug-free. The method, then: Two hundred YB5 cells were seeded per well in 6-well plates. On the following day, YB5 cells were treated with toyocamycin for 24 h or 72 h. Decitabine (10–50 nM for 72 h) was used as a positive control for the loss of clonogenic potential. Drugs and media were replaced each day. After treatment, media was removed. YB5 cells were grown in drug-free media for 2 weeks to allow visible colony formation prior to colony staining (0.5% methylene blue in 50% methanol). YB5 colonies were counted manually.

With `COc1cc(F)ccc1-c1cc(Nc2cc(CS(C)(=N)=O)ccn2)ncc1F` (stereo not shown) [BAY1251152], in experiment [1], the “RNA Pol II band intensity, Pol II C-terminal antibody” value was “reduced the RNA Pol II band intensity” and the “RNA-Pol II ser 2 phosphorylation” value is given as “significantly reduced”.

For the compound `Nc1nccc2c1ncn2C1C=C(CO)C(O)C1O` (stereo not shown) [DZNep], the “GFP expression in YB5 cells, adenosine analogues” value in experiment [2] (24 h) was “only sangivamycin induced GFP expression”.

For the compound `CC(=O)N[C@@H]1CCC[C@H](C(=O)Nc2cc(-c3cnn4c3CC(C)(C)C4)c(Cl)cn2)C1` [AZD-4573], the “CDK9 inhibition IC50 values” in experiment [3] is recorded as “low nanomolar range”.

As to `Nc1ncn([C@H]2C[C@H](O)[C@@H](CO)O2)c(=O)n1` [decitabine, 5-aza-2′-deoxycytidine], the “GFP+ cells” value in experiment [2] (50 nM, 72 h) is listed as “about 15%”. For the same compound, the colony formation result in experiment [4] is recorded as “still produced colonies”.

For `CC(/C=C/C(=O)NO)=C\[C@@H](C)C(=O)c1ccc(N(C)C)cc1` [trichostatin A], the “GFP+ cells” value in experiment [2] (200 nM, 24 h) is “about 6%”.

Regarding `CC(C)(C)c1cnc(CSc2cnc(NC(=O)C3CCNCC3)s2)o1` [SNS-032], in experiment [3], the “CDK9 inhibition IC50 values” is recorded as “low nanomolar range”.

Take `Nc1nccc2c1ncn2[C@@H]1O[C@H](CO)[C@@H](O)[C@H]1O` [3-deaza-adenosine]: the “GFP expression in YB5 cells, adenosine analogues” value in experiment [2] (24 h) was “only sangivamycin induced GFP expression”.

Take `Nc1n[nH]c(N)c1N=Nc1ccc(O)cc1` [CAN-508]: in experiment [3], the “CDK9 inhibition IC50 values” is listed as “low nanomolar range”.

On to `COc1ccccc1-c1cc(Nc2cccc(CS(N)(=O)=O)c2)ncn1` [LDC000067], for which the “CDK9 inhibition IC50 values” in experiment [3] is “low nanomolar range”.

As to `NC(=O)c1cn([C@@H]2O[C@H](CO)[C@@H](O)[C@H]2O)c2ncnc(N)c12` [sangivamycin], the “GFP expression in YB5 cells, adenosine analogues” value is given as “induced GFP expression in YB5 cells, but to a lesser extent than toyocamycin” in experiment [2] (24 h) and “weak GFP activation” in experiment [2] (24 h, listed as Sangivamycin). In experiment [3], the CDK9 inhibition entry was “direct CDK9 inhibition”.

As for `Nc1ncnc2c1ccn2[C@@H]1O[C@H](CO)[C@@H](O)[C@H]1O` [tubercidin], the “GFP expression in YB5 cells, adenosine analogues” value in experiment [2] (24 h) was “only sangivamycin induced GFP expression”.

With `Nc1nc(N[C@H]2C[C@@H]3CC[C@H]2C3)sc1C(=O)c1ccccc1[N+](=O)[O-]` [MC180295], the “GFP fluorescence, % of YB5 cells” value in experiment [2] (500 nM, 48 h) is listed as “about 10%”.

These data come from PMC9324262, “Selective CDK9 Inhibition by Natural Compound Toyocamycin in Cancer Cells” (Cancers, 2022).
